# In PubChem BioAssay (NCI):
#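 Results reflect a 48-hour exposure of cells in 96-well plates to compound at five concentrations. GI50 is the concentration that inhibits growth by half. Definition used: TGI = concentration required for complete inhibition of growth.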
# Legend:
# Assay in all cases: inhibition of tumour cell growth, NCI panel, 48 h
# 786-0 renal = test system: 786-0 renal
# UACC-257 melanoma = test system: UACC-257 melanoma
# BT-549 breast = test system: BT-549 breast
# A549 NSCLC = test system: A549 NSCLC
# KM12 colon = test system: KM12 colon
# SNB-75 CNS = test system: SNB-75 CNS
# T-47D breast = test system: T-47D breast
# HCT-15 colon = test system: HCT-15 colon
# HL-60(TB) leukemia = test system: HL-60(TB) leukemia
# NCI-H522 lung = test system: NCI-H522 lung
# LOX IMVI melanoma = test system: LOX IMVI melanoma
# RXF 393 renal = test system: RXF 393 renal
# SK-MEL-28 melanoma = test system: SK-MEL-28 melanoma
# M14 melanoma = test system: M14 melanoma
# OVCAR-4 ovarian = test system: OVCAR-4 ovarian
# HCC-2998 colon = test system: HCC-2998 colon
# MDA-MB-231 breast = test system: MDA-MB-231 breast
# EKVX NSCLC = test system: EKVX NSCLC
# SF-295 CNS = test system: SF-295 CNS
# HT29 colon = test system: HT29 colon
# SK-MEL-5 melanoma = test system: SK-MEL-5 melanoma
# SN12C renal = test system: SN12C renal
# PC-3 prostate = test system: PC-3 prostate
# SNB-19 CNS = test system: SNB-19 CNS
# OVCAR-8 ovarian = test system: OVCAR-8 ovarian
# SF-268 CNS = test system: SF-268 CNS
# TK-10 renal = test system: TK-10 renal
# CCRF-CEM leukemia = test system: CCRF-CEM leukemia
# SR leukemia = test system: SR leukemia
# NCI-H226 lung = test system: NCI-H226 lung
# SK-MEL-2 melanoma = test system: SK-MEL-2 melanoma
# HCT-116 colon = test system: HCT-116 colon
# IGROV1 ovarian = test system: IGROV1 ovarian
# K-562 leukemia = test system: K-562 leukemia
# A498 renal = test system: A498 renal
# HS 578T breast = test system: HS 578T breast
# HOP-62 NSCLC = test system: HOP-62 NSCLC
# MCF7 breast = test system: MCF7 breast
# U251 CNS = test system: U251 CNS
# OVCAR-5 ovarian = test system: OVCAR-5 ovarian
# DU-145 prostate = test system: DU-145 prostate
# NCI-H460 lung = test system: NCI-H460 lung
# SF-539 CNS = test system: SF-539 CNS
# UO-31 renal = test system: UO-31 renal
# MDA-MB-435 = test system: MDA-MB-435
# SK-OV-3 ovarian = test system: SK-OV-3 ovarian
# COLO 205 colon = test system: COLO 205 colon
# NCI-H23 lung = test system: NCI-H23 lung
# RPMI-8226 leukemia = test system: RPMI-8226 leukemia
# MALME-3M melanoma = test system: MALME-3M melanoma
# ACHN renal = test system: ACHN renal
# UACC-62 melanoma = test system: UACC-62 melanoma
# CAKI-1 renal = test system: CAKI-1 renal
# MOLT-4 leukemia = test system: MOLT-4 leukemia
# OVCAR-3 ovarian = test system: OVCAR-3 ovarian
smiles,measurement,setting,value
COc1cc(/C=C/C(=O)c2cccc(-n3cc(-c4cc(OC)c(OC)c(OC)c4)[nH]c3=O)c2)cc(OC)c1OC,GI50,786-0 renal,1.59 µM
same,TGI,786-0 renal,3.14 µM
same,GI50,UACC-257 melanoma,2.22 µM
same,TGI,UACC-257 melanoma,5.45 µM
same,GI50,BT-549 breast,1.52 µM
same,TGI,BT-549 breast,3.43 µM
same,GI50,A549 NSCLC,3.03 µM
same,TGI,A549 NSCLC,18.5 µM
same,GI50,KM12 colon,1.12 µM
same,TGI,KM12 colon,2.46 µM
same,GI50,SNB-75 CNS,5.13 µM
same,TGI,SNB-75 CNS,21 µM
same,GI50,T-47D breast,3.08 µM
same,TGI,T-47D breast,22.8 µM
same,GI50,HCT-15 colon,1.89 µM
same,TGI,HCT-15 colon,7.51 µM
same,GI50,HL-60(TB) leukemia,0.922 µM
same,TGI,HL-60(TB) leukemia,6.39 µM
same,GI50,NCI-H522 lung,1.05 µM
same,TGI,NCI-H522 lung,2.53 µM
same,GI50,LOX IMVI melanoma,1.23 µM
same,TGI,LOX IMVI melanoma,3.48 µM
same,GI50,RXF 393 renal,1.62 µM
same,TGI,RXF 393 renal,3.41 µM
same,GI50,SK-MEL-28 melanoma,1.61 µM
same,TGI,SK-MEL-28 melanoma,3.39 µM
same,GI50,M14 melanoma,2.12 µM
same,TGI,M14 melanoma,4.8 µM
same,GI50,OVCAR-4 ovarian,3.77 µM
same,TGI,OVCAR-4 ovarian,55.6 µM
same,GI50,HCC-2998 colon,1.92 µM
same,TGI,HCC-2998 colon,3.43 µM
same,GI50,MDA-MB-231 breast,4.19 µM
same,TGI,MDA-MB-231 breast,26.3 µM
same,GI50,EKVX NSCLC,9.48 µM
same,TGI,EKVX NSCLC,> 100 µM
same,GI50,SF-295 CNS,4.96 µM
same,TGI,SF-295 CNS,19.5 µM
same,GI50,HT29 colon,1.7 µM
same,TGI,HT29 colon,7.03 µM
same,GI50,SK-MEL-5 melanoma,2.76 µM
same,TGI,SK-MEL-5 melanoma,9.57 µM
same,GI50,SN12C renal,2.75 µM
same,TGI,SN12C renal,18.2 µM
same,GI50,PC-3 prostate,2.63 µM
same,TGI,PC-3 prostate,18.6 µM
same,GI50,SNB-19 CNS,4.07 µM
same,TGI,SNB-19 CNS,15.8 µM
same,GI50,OVCAR-8 ovarian,2.32 µM
same,TGI,OVCAR-8 ovarian,8.9 µM
same,GI50,SF-268 CNS,2.2 µM
same,TGI,SF-268 CNS,7.47 µM
same,GI50,TK-10 renal,3 µM
same,TGI,TK-10 renal,6.68 µM
same,GI50,CCRF-CEM leukemia,0.275 µM
same,TGI,CCRF-CEM leukemia,> 100 µM
same,GI50,SR leukemia,0.386 µM
same,TGI,SR leukemia,> 100 µM
same,GI50,NCI-H226 lung,14.4 µM
same,TGI,NCI-H226 lung,80.3 µM
same,GI50,SK-MEL-2 melanoma,3.02 µM
same,TGI,SK-MEL-2 melanoma,7.63 µM
same,GI50,HCT-116 colon,0.749 µM
same,TGI,HCT-116 colon,2.13 µM
same,GI50,IGROV1 ovarian,1.6 µM
same,TGI,IGROV1 ovarian,3.79 µM
same,GI50,K-562 leukemia,0.591 µM
same,TGI,K-562 leukemia,> 100 µM
same,GI50,A498 renal,20.3 µM
same,TGI,A498 renal,> 100 µM
same,GI50,HS 578T breast,> 100 µM
same,TGI,HS 578T breast,> 100 µM
same,GI50,HOP-62 NSCLC,3.08 µM
same,TGI,HOP-62 NSCLC,8.74 µM
same,GI50,MCF7 breast,0.479 µM
same,TGI,MCF7 breast,2.44 µM
same,GI50,U251 CNS,1.23 µM
same,TGI,U251 CNS,3.71 µM
same,GI50,OVCAR-5 ovarian,4.38 µM
same,TGI,OVCAR-5 ovarian,13.4 µM
same,GI50,DU-145 prostate,2.98 µM
same,TGI,DU-145 prostate,13.6 µM
same,GI50,NCI-H460 lung,1.73 µM
same,TGI,NCI-H460 lung,3.98 µM
same,GI50,SF-539 CNS,3.12 µM
same,TGI,SF-539 CNS,18 µM
same,GI50,UO-31 renal,0.962 µM
same,TGI,UO-31 renal,3.13 µM
same,GI50,MDA-MB-435,2.11 µM
same,TGI,MDA-MB-435,9.92 µM
same,GI50,SK-OV-3 ovarian,5.12 µM
same,TGI,SK-OV-3 ovarian,> 100 µM
same,GI50,COLO 205 colon,1.52 µM
same,TGI,COLO 205 colon,3.13 µM
same,GI50,NCI-H23 lung,2 µM
same,TGI,NCI-H23 lung,4.68 µM
same,GI50,RPMI-8226 leukemia,0.238 µM
same,TGI,RPMI-8226 leukemia,0.733 µM
same,GI50,MALME-3M melanoma,1.8 µM
same,TGI,MALME-3M melanoma,3.7 µM
same,GI50,ACHN renal,1.74 µM
same,TGI,ACHN renal,3.3 µM
same,GI50,UACC-62 melanoma,1.87 µM
same,TGI,UACC-62 melanoma,4.01 µM
same,GI50,CAKI-1 renal,2.89 µM
same,TGI,CAKI-1 renal,9.91 µM
same,GI50,MOLT-4 leukemia,1.75 µM
same,TGI,MOLT-4 leukemia,8.08 µM
same,GI50,OVCAR-3 ovarian,1.48 µM
same,TGI,OVCAR-3 ovarian,4.32 µM
